In the test the target is Reverse transcriptase/RNaseH (Human immunodeficiency virus 1, UniProt Q72547). The test is described as follows: Ability to inhibit the HIV-1 reverse transcriptase in cord blood mononuclear cells.

In BindingDB's records for doi:10.1021/jm00001a001 (Biochem Therapeutic, 1995) one finds IC50 data, which are given here for one molecule.

Each structure is given as a SMILES string.

The term IC50 denotes the concentration needed to halve the response being measured. High values mean weaker potency in that assay, low ones greater potency in that assay.

Molecule `Cc1cn([C@H]2C[C@H](N=[N+]=[N-])[C@@H](CO)O2)c(=O)[nH]c1=O` [1-((2R,4S,5S)-4-Azido-5-hydroxymethyl-tetrahydro-furan-2-yl)-5-methyl-1H-pyrimidine-2,4-dione] showed an IC50 of 30 nM.
